Measured values published in US7037500B1, “Method for using phagocytic particles and ATP receptors to deliver antigens to MHC class I receptors to induce immunity against microbial pathogens or tumors or to suppress immunity” (The Trustees of Columbia University in the City of New York, priority 2000, dated 2006).

Tests used:
[1] = target: T1, P2X7 receptors of J774 cells (Mus musculus, UniProt Q9Z1M0); details: previous study (8); cited from earlier work
T1 construct: P2X7 receptors of J774 cells; endogenous in cells; host or cells: J774 macrophage-like cells
T1 sequence (Q9Z1M0 1-595): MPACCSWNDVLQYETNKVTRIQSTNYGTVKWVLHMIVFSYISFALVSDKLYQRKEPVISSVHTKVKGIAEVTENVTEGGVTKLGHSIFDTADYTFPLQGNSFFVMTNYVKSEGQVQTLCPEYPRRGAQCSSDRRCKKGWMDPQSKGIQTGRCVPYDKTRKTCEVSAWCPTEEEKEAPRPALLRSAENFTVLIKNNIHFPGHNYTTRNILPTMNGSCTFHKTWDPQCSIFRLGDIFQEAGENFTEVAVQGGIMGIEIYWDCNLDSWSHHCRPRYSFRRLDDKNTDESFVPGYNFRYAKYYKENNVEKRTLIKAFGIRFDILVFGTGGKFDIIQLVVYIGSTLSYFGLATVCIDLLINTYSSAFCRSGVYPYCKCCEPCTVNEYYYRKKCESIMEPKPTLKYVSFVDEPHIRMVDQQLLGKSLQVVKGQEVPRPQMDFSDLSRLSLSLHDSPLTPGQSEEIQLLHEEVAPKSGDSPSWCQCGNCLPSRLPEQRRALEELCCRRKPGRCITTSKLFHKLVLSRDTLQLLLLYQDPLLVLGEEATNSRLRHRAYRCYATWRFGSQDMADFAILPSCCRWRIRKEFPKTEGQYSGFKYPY

P2X7 receptors = target: T2, P2X7 receptors (Mus musculus, UniProt Q9Z1M0); details: cited from earlier work
T2 sequence (Q9Z1M0 1-595): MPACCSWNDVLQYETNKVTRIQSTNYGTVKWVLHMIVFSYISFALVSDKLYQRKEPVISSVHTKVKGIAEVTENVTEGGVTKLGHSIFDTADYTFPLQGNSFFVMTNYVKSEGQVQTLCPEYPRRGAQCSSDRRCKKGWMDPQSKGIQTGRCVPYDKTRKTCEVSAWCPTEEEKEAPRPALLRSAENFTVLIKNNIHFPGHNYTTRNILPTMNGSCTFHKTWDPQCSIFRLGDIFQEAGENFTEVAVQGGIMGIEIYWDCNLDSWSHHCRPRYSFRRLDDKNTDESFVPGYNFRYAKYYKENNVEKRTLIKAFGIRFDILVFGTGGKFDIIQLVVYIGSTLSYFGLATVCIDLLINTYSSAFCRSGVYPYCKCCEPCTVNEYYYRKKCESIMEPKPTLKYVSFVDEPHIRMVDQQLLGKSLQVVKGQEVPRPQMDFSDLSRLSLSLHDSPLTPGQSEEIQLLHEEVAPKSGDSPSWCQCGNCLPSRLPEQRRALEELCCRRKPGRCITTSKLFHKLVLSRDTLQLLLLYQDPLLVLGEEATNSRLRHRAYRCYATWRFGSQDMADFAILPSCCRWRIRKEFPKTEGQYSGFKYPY

[2] = tested on: Mouse bone marrow derived dendritic cells / isogenic spleen derived CD8 lymphocytes; experiment: CTL assay, 3H-thymidine uptake of CD8 lymphocytes co-incubated with treated dendritic cells; format: cell-based
Protocol: It is shown herein that if a peptide such as ovalbumin is loaded into the IgG opsonized red blood cell resealed ghosts and then incubated with mouse bone derived dendritic cells—the dendritic cells will present class I MHC and induce cytotoxic CD8 lymphocytes as measured by the capacity of these lymphocytes to proliferate in response to co-incubation of the dendritic cells with CD8 lymphocytes. (Table 1)
Table 1: Mouse Bone marrow derived dendritic cells prepared as described in FIG. 3 were incubated with the appropriate isogenic spleen derived CD8 lymphocytes for several hours and then the CTL response was assayed by radiolabeled thymidine incorporation into the lymphocytes indicating a proliferative response mediated via class I MHC.

## Cc1ccc(N(CC(=O)O)CC(=O)O)c(OCCOc2cc3cc(-c4ncc(C(=O)O)o4)oc3cc2N(CC(=O)O)CC(=O)O)c1 [fura 2]
[1]
  penetration of plasma membrane pores formed by ATP4-activated P2X7 receptors: penetrate plasma membrane pores

## Nc1ncnc2c1ncn2[C@@H]1O[C@H](COP(=O)(O)OP(=O)(O)OP(=O)(O)O)[C@@H](O)[C@H]1O [ATP^4−]
P2X7 receptors
  [ATP4-] needed to induce pore formation by P2X7 receptors: > 130 µM

## Soluble Ova peptide: soluble ovalbumin peptide (amino acids 257–264) (ESIINFEK; UniProt P01012 257-264, looked up, fragment)
[2]; dendritic cells treated with 100 ng/ml
  CTL Assay- 3H-thymidine uptake (proliferation assay-cpm): 90,000 cpm

B1: Soluble Ova protein: soluble ovalbumin protein (protein, UniProt P01012 2-386, looked up)
Ovalbumin: GSIGAASMEFCFDVFKELKVHHANENIFYCPIAIMSALAMVYLGAKDSTRTQINKVVRFDKLPGFGDSIEAQCGTSVNVHSSLRDILNQITKPNDVYSFSLASRLYAEERYPILPEYLQCVKELYRGGLEPINFQTAADQARELINSWVESQTNGIIRNVLQPSSVDSQTAMVLVNAIVFKGLWEKAFKDEDTQAMPFRVTEQESKPVQMMYQIGLFRVASMASEKMKILELPFASGTMSMLVLLPDEVSGLEQLESIINFEKLTEWTSSNVMEERKIKVYLPRMKMEEKYNLTSVLMAMGITDVFSSSANLSGISSAESLKISQAVHAAHAEINEAGREVVGSAEAGVDAASVSEEFRADHPFLFCIKHIATNAVLFFGRCVSP
[2]; dendritic cells treated with 10 mg/ml
  CTL Assay- 3H-thymidine uptake (proliferation assay-cpm): 160,000 cpm
